Values quoted from earlier work as cited in US8323685B2, “Methods of processing compositions containing microparticles” (Baxter International Inc., priority 2008, dated 2012).

Tests used:
rats = conditions: oral, all at once (acute toxicity), minimal amount reported in the literature
[1] = ambient temperature such as 20-25° C.

SMILES	LD50 (rats) [g/kg body weight]	Solubility (Sol) of water in the liquid [1] [g/100 g]
CCC(C)=O [2-butanone (MEK), 2-butanone]	2.7	
CC(C)=O [Acetone]	5.8	
CC(C)OC(C)C [diisopropyl ether]		0.2
COCCOC [dimethoxyethane]	10	
CCOCC [ether]	1.2	7.5
